Values joined by “and” are separate entries in the source; they are usually repeats but may differ in a detail not shown here. Identical values can stand only once.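 How tested: cells in 96-well plates exposed to compound for 48 hours at five concentrations. At the GI50, growth is halved. TGI: concentration producing complete growth inhibition.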

Holding throughout (test): DTP human tumour cell line panel, 48 h
The test system of test [1] is SN12C renal.
Test [2] deals with NCI/ADR-RES ovarian.
In test [3] the test system is TK-10 renal.
In test [4] the test system is UACC-257 melanoma.
For test [5], the system named is LOX IMVI melanoma.
The subject of test [6] is SF-539 CNS.
Test [7] concerns K-562 leukemia.
Test [8] concerns SK-OV-3 ovarian.
For test [9], the system named is MALME-3M melanoma.
Test [10] deals with KM12 colon.

As for `Fc1cccc(-n2ccc(-c3ccccc3)nc2=S)c1`, the GI50 was 3.01 µM in [1]; 18.3 µM in test [2]; 18.2 µM in [3]; 46.7 µM in [4]; 16.1 µM in [5]; 17.6 µM in test [6]. For the same compound, the GI50 in test [7] was 43 µM; in test [8], 1.59 µM; in [9] it was 65.3 µM; in test [10] it was 18.6 µM. Also, the TGI in test [1] was 10.4 µM; in [2], 41.4 µM; in [3], 36 µM; in test [4], greater than 100 µM; in test [5], 29.5 µM; in test [6], 38.9 µM. In addition, the TGI in [7] is greater than 100 µM; in [8] it was 44.9 µM; in test [9], greater than 100 µM; in test [10], 42.8 µM.
As to `CN(C)CCNC(=O)Cn1cnc2cccc([N+](=O)[O-])c2c1=O`, the TGI in [1], in [2], in [3], in test [4], in [5] and in [6] was greater than 100 µM each time. Also, the TGI in test [7], in test [8], in test [9] and in test [10] was greater than 100 µM throughout.
Consider `O=C(O)c1c(=O)cccc2ssc12`, for which the GI50 in [1] is 2.49 µM; in test [2], 2.4 µM; in test [3] it was 1.75 µM; in [4], 2.02 µM; in test [5] it was 1.78 µM; in [6], 1.98 µM. Moreover, the GI50 in [7] was 2.04 µM; in test [8], 1.74 µM; in [9], 2.22 µM; in [10], 1.9 µM. The TGI in [1] was determined as 6.32 µM; in [2] it was 5.68 µM; in [3], 3.23 µM; in test [4], 4.19 µM; in [5], 3.42 µM; in test [6], 3.84 µM. Besides, the concentration for total growth inhibition (TGI) stood at 5.51 µM in test [7], 3.26 µM in [8], 4.45 µM in test [9] and 3.72 µM in test [10].
On to `Cc1cc(-c2ccccn2)cc(C)c1/C=C/c1cncc(-c2nn[nH]n2)c1`, for which the GI50 in [1], in test [2], in test [3], in test [4], in test [5] and in test [6] was greater than 25 µM throughout. The GI50 in [7], in [8], in test [9] and in test [10] was greater than 25 µM throughout. Also, the TGI in [1], in test [2], in test [3], in test [4], in test [5] and in test [6] was greater than 25 µM throughout. Further, the TGI in [7], in [8], in test [9] and in test [10] was greater than 25 µM each time.
`O=C1/C(=C/c2ccc(Cl)cc2)CCC/C1=C\c1ccc(Cl)cc1`: the GI50 was 6.06 µM in test [1]; 4.32 µM in test [2]; 6.81 µM in test [3]; 4.17 µM in test [4]; 1.69 µM in test [5]; 7.85 µM in test [6]. Besides, the GI50 is 3.61 µM in test [7], 9.84 µM in test [8], greater than 100 µM in test [9] and 1.9 µM in test [10]. For the same compound, the concentration for total growth inhibition (TGI) in test [1] is greater than 100 µM; in test [2], greater than 100 µM; in [3], greater than 100 µM; in [4], greater than 100 µM; in test [5] it was 3.42 µM; in test [6], greater than 100 µM. For the same compound, the TGI in test [7] was greater than 100 µM; in test [8], greater than 100 µM; in test [9], greater than 100 µM; in [10], 3.75 µM.
As to `CCCN(CCC)c1ccc(/C=N/NC(=O)c2cccnc2)c(OC)c1`, the GI50 in test [1] was 36.1 µM; in test [2], 24.8 µM; in [3], 28.7 µM; in test [4] it was 20.7 µM; in test [5], 23.6 µM; in test [6], 28.3 µM. Also, the GI50 was 22.2 µM in test [7], 21.6 µM in [8], 18.8 µM in [9] and 21.3 µM in test [10]. Moreover, the TGI in test [1] is greater than 100 µM; in test [2], greater than 100 µM; in [3], 90.1 µM; in test [4] it was 67.6 µM; in test [5], greater than 100 µM; in test [6], greater than 100 µM. For the same compound, the TGI in test [7] is greater than 100 µM; in [8], 71.3 µM; in [9] it was 50.4 µM; in test [10], 68.3 µM.
For `COc1cc2nccc(Oc3ccc(NC(=O)Nc4cc(C)on4)c(Cl)c3)c2cc1OC`, the GI50 was 2.13 µM and 2.56 µM in [1]; 3.08 µM and 3.53 µM in test [2]; 3.42 µM and 3.9 µM in [3]; 3.73 µM and 5.54 µM in [4]; 2.21 µM and 2.19 µM in test [5]; 1.49 µM and 1.41 µM in test [6]. Further, the GI50 in [7] is 0.0349 µM and 0.0609 µM; in test [8] it was 4.16 µM and 3.57 µM; in [9] it was 1.92 µM and 6.17 µM; in test [10], 0.178 µM and 0.25 µM. Also, the TGI in [1] is greater than 100 µM; in [2] it was greater than 100 µM; in [3], 13.2 µM and > 10 µM; in [4], 33.9 µM and > 10 µM; in [5] it was 8.14 µM and > 10 µM; in test [6], 4.05 µM and 4.74 µM. Also, the TGI in [7] is greater than 100 µM; in test [8], 26.5 µM and > 10 µM; in test [9], 8.17 µM and > 10 µM; in [10] it was greater than 66.6 µM.
For `OCCNc1nc(Nc2ccc(Cl)c(Cl)c2)nc2ccccc12`, the GI50 was 5.37 µM in test [1]; 4.91 µM in test [2]; 14.3 µM in test [3]; 11.1 µM in test [4]; 3.38 µM in [5]; 5.68 µM in test [6]. In addition, the GI50 was 3.09 µM in test [7], 11 µM in test [8], 4.97 µM in test [9] and 4.19 µM in test [10]. In addition, the TGI was found to be 20.7 µM in test [1]; 20 µM in test [2]; 27.9 µM in test [3]; 23.1 µM in test [4]; 11.9 µM in test [5]; 20.6 µM in test [6]. Further, the concentration for total growth inhibition (TGI) in test [7] was found to be 10.8 µM; in test [8] it was 23.4 µM; in test [9], 17.5 µM; in [10] it was 16.2 µM.
`O=C(Nc1cccc(-c2ccc(Cl)c(C(F)(F)F)c2)c1)C1CCN(Cc2cccc3cccnc23)CC1`: the GI50 in test [1] is 1.6 µM; in test [2] it was 1.69 µM; in test [3], 1.63 µM; in [4], 1.83 µM; in test [5] it was 1.5 µM; in test [6], 1.76 µM. Besides, the GI50 in [7] was 1.1 µM; in test [8] it was 1.76 µM; in test [9], 1.65 µM; in test [10], 1.8 µM. For the same compound, the TGI was 3.03 µM in test [1]; 3.31 µM in test [2]; 3.16 µM in [3]; 3.62 µM in test [4]; 2.89 µM in test [5]; 3.16 µM in [6]. The concentration for total growth inhibition (TGI) in test [7] amounted to 5.99 µM; in test [8], 3.37 µM; in test [9] it was 3.08 µM; in test [10], 3.43 µM.
Regarding `O=C1C=CC(=O)N1c1cccc(N2C(=O)C=CC2=O)c1`, the GI50 in test [1] was 2 µM; in test [2], 2.38 µM; in test [3], 1.71 µM; in test [4], 1.65 µM; in [5], 2.02 µM; in test [6] it was 1.84 µM. The GI50 in test [7] is 2.67 µM; in test [8] it was 18.2 µM; in [9], 3 µM; in test [10] it was 8.33 µM. In addition, the TGI in [1] stood at 5.31 µM; in test [2] it was 6.14 µM; in test [3], 3.13 µM; in test [4] it was 3.32 µM; in test [5], 4.02 µM; in [6], 3.46 µM. In addition, the total growth inhibition concentration (TGI) in [7] stood at 7.7 µM; in test [8] it was 32.1 µM; in test [9], 6.94 µM; in [10] it was 22.7 µM.
On to `Oc1ccc(C2c3ccccc3Oc3ccccc32)c2cccnc12`, for which the GI50 was 1.65 µM in test [1]; 1.59 µM in test [2]; 1.09 µM in [3]; 2.76 µM in test [4]; 0.778 µM in test [5]; 2.53 µM in test [6]. The GI50 in test [7] is 1.37 µM; in test [8], 1.75 µM; in test [9], 2.83 µM; in test [10], 1.71 µM. For the same compound, the TGI is greater than 100 µM in test [1]; greater than 100 µM in test [2]; greater than 100 µM in test [3]; greater than 100 µM in test [4]; greater than 100 µM in [5]; 25.5 µM in test [6]. Besides, the TGI in [7] was greater than 100 µM; in test [8] it was greater than 100 µM; in test [9] it was 27.4 µM; in test [10], greater than 100 µM.
Take `Cc1cc2c(C(N)=O)c(N)n(-c3c(C)ccc(O)c3C)c2nc1C`: the GI50 in test [1] was 2.48 µM; in test [2], 6.48 µM; in test [3] it was 4.11 µM; in test [4], 3.13 µM; in [5] it was 1.5 µM; in test [6], 0.434 µM. Further, the GI50 in [7] was 2 µM; in test [8], 12.2 µM; in test [9] it was 3.08 µM; in test [10], 4.54 µM. The TGI was 34.5 µM in test [1]; 32.7 µM in [2]; 23.9 µM in test [3]; 51.6 µM in [4]; 4.85 µM in [5]; 2.88 µM in test [6]. Besides, the TGI was greater than 100 µM in test [7], 89 µM in test [8], 18.3 µM in test [9] and greater than 100 µM in test [10].
Turning to `O=C1OC(=O)C2CCCC3CCCC1C32` (stereo not given), the TGI in test [1], in test [2], in test [3], in test [4], in test [5] and in test [6] was greater than 100 µM each time. Moreover, the TGI in [7], in test [8], in [9] and in test [10] was greater than 100 µM each time.
`CC1=C(C(=O)Nc2cc(Cl)c3[nH]ncc3c2)C(c2ccc(C(F)(F)F)cc2)CC(=O)N1` (stereo not given): the GI50 in test [1] was greater than 25 µM; in [2] it was greater than 25 µM; in test [3] it was greater than 17.6 µM; in [4], greater than 25 µM; in test [5], greater than 20.4 µM; in test [6], 14.8 µM. Moreover, the GI50 is greater than 25 µM in test [7], greater than 25 µM in [8], 13.1 µM in test [9] and 20 µM in test [10]. The TGI in [1], in test [2], in test [3], in test [4], in [5] and in [6] was greater than 25 µM each time. Moreover, the TGI in test [7], in test [8], in test [9] and in [10] was greater than 25 µM throughout.
For `Cc1ccc(NC(=O)CSc2nnc3n(Cc4ccccc4)c(=O)c4c(C)c(C(N)=O)sc4n23)cc1`, the GI50 in test [1] was greater than 100 µM; in test [2], greater than 100 µM; in test [3], 13.7 µM; in [4], greater than 100 µM; in test [5] it was greater than 100 µM; in [6] it was 21.7 µM. In addition, the GI50 in [7] is 42.5 µM; in test [8], 4.28 µM; in [9], greater than 100 µM; in test [10], greater than 100 µM. Moreover, the TGI is greater than 100 µM in test [1]; greater than 100 µM in test [2]; 34 µM in test [3]; greater than 100 µM in test [4]; greater than 100 µM in [5]; greater than 100 µM in [6]. Moreover, the TGI was greater than 100 µM in [7], 65.4 µM in [8], greater than 100 µM in test [9] and greater than 100 µM in test [10].

The values are drawn from PubChem BioAssay (NCI).
